Experimental data reported in patent publication US20240343740A1, “MACROCYCLIC GLUCAGON-LIKE PEPTIDE 1 RECEPTOR AGONISTS” (Eli Lilly and Company, priority 2021, published 2024).
Where two headings read alike, the source gives them in different places.

Legend:
[1] = cc_pd bond, 14-membered ring, 110.0 °C, 15.0 h
[2] = molecular target: T1, human GLP-1R (Homo sapiens, UniProt P43220); test: GLP-1R CHO cell β-arrestin recruitment assay (PathHunter); type: cell-based; parameters: host or cells: CHO-K1; conditions: for EC50: CHO-K1 cells expressing Pro-Link-tagged Human GLP-1R and enzyme-acceptor-tagged β-arrestin-2, read-out: EC50 nM (SEM, n), hGLP1R induced β-Arrestin-2 recruitment relative EC50; for Emax: CHO-K1 cells, % stimulation with DMSO and GLP-1(7-36) as minimum and maximum controls, read-out: Emax % (SEM, n), hGLP1R induced β-Arrestin-2 recruitment
Procedure: GLP-1R CHO Cell β-Arrestin Recruitment Assay
Activated G-protein coupled receptors can interact with the β-arrestin family of signaling proteins. The potency of compounds for GLP-1R induced arrestin recruitment is determined using the PathHunter Enzyme Fragment Complementation approach substantially as described (von Degenfeld et al., FASEB J., 2007 (14):3819-26 and Hamdouchi et al., J. Med Chem., 2016 59(24):10891-10916). CHO-K1 cells expressing Pro-Link-tagged Human GLP-1R and enzyme-acceptor-tagged β-arrestin-2 may be obtained from DiscoveRx and prepared as assay-ready frozen cells. Test compounds are solubilized in DMSO and serial dilutions are performed using the Echo acoustic dispenser (LabCyte). Assay media is the PathHunter Cell Assay Buffer (DiscoveRx) containing 0.1% w/v hydrolyzed Casein (Sigma). 100 nL of test compound solution is dispensed into 10 μL of assay media in a 384 well plate and then 10 μL of cells in assay media are added to give 5000 cells per well. Plates are incubated for 90 min in a 37° C./5% CO2 incubator and 10 μL of PathHunter detection reagent is added (DiscoveRx) and plates are incubated at RT for 60 min. Luminescence signal is measured. Compound concentration-response curves fit to a four-parameter logistic model to calculate potency as an EC50 and percent top (Emax). Data normalization to % stimulation is performed using DMSO and GLP-1(7-36) as minimum and maximum controls (Campbell et al, Assay Guidance Manual 2017).
Target sequence in this assay (P43220 24-463): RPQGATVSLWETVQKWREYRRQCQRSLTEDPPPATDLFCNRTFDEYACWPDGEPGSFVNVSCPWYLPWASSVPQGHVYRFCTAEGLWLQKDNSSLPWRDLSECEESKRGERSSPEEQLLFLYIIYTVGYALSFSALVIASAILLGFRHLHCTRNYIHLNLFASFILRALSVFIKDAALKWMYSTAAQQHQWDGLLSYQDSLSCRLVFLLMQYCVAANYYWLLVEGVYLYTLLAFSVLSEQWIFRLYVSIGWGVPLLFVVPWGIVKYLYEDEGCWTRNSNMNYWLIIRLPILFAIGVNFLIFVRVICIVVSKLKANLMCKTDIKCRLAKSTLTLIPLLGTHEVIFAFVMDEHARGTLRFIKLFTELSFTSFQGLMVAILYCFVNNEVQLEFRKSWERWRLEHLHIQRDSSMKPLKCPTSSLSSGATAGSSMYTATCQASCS
Target sequence in this assay (P32121 whole entry partner): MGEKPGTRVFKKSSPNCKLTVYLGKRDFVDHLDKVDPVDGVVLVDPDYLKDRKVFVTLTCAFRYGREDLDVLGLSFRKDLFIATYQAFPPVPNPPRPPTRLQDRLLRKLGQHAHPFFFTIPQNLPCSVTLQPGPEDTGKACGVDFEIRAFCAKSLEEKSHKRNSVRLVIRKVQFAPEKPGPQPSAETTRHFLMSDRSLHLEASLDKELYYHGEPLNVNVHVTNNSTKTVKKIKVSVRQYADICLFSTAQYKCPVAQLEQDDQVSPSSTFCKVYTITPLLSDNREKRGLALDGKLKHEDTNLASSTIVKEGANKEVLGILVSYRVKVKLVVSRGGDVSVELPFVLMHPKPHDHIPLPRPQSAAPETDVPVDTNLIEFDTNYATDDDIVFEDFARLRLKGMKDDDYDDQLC

[3] = molecular target: T1, human GLP-1R; test: Human GLP-1 Receptor HEK293 cell cAMP assay, 581 fmol/mg GLP-1R expression density; type: cell-based; parameters: expressed in transfected cells; host or cells: HEK293 clonal cell line; conditions: HEK293 cell line with 581 fmol/mg expression density of GLP-1R; for EC50: geometric mean, read-out: EC50 nM (SEM, n), intracellular cAMP response, relative EC50; for Emax: percent of maximal response to GLP-1(7-36)NH2, arithmetic mean, read-out: Emax % (SEM, n), intracellular cAMP response
In short: (§1)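 HEK293 clonal lines expressing human GLP-1R, 20-point compound curves, 30 min at 37° C in DMEM with 0.1% casein, 250 μM IBMX, 0.5% DMSO. cAMP by HTRF, converted via standard curve to % of maximal human GLP-1(7-36)NH2 response; relative EC50 and Emax from four-parameter logistic fit.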
Target sequence in this assay (P43220 24-463): as the sequence (P43220 24-463) above

[4] = molecular target: T1, human GLP-1R; test: Human GLP-1 Receptor HEK293 cell cAMP assay, 104 fmol/mg GLP-1R expression density; type: cell-based; parameters: expressed in transfected cells; host or cells: HEK293 clonal cell line; conditions: HEK293 cell line with 104 fmol/mg expression density of GLP-1R; for EC50: geometric mean, read-out: EC50 nM (SEM, n), intracellular cAMP response, relative EC50; for Emax: percent of maximal response to GLP-1(7-36)NH2, arithmetic mean, read-out: Emax % (SEM, n), intracellular cAMP response
In short: as §1
Target sequence in this assay (P43220 24-463): as above

EC50 [2] [nM]	Emax [2] [%]	EC50 [3] [nM]	Emax [3] [%]	EC50 [4] [nM]	Emax [4] [%]	Structure (SMILES)	ring closure, yield after HPLC ([1]; from CCOC(=O)Cc1cc(F)c(Br)cc1COCCc1cc(C#N)ccc1COc1ccc(F)c(Br)n1, XPhos Pd G3/Me3SnSnMe3/CsF, 1,4-dioxane, 11.4 mM) [%]	ring closure, yield after HPLC ([1]; from FC(F)(F)c1cc(CCOCc2cc(Br)ccc2Cl)c(COc2cccc(Br)n2)cn1, XPhos Pd G3) [%]
320	34	44.1	102	132	84	O=C(O)c1ccc2nc(Cc3ccc4cc3OCCCc3cc(Cl)ccc3COc3cccc-4n3)n(C[C@@H]3CCO3)c2c1 [Example 3, (S)-2-((5^4-Chloro-3,9-dioxa-2(2,6)-pyridina-1(1,3),5(1,2)-dibenzenacyclononaphane-1^4-yl)methyl)-1-(oxetan-2-ylmethyl)-1H-benzo[d]imidazole-6-carboxylic acid]		
> 49500	9.47	20.2	81.8	66.3	46.4	COc1cc(-c2nnn[nH]2)cc2c1nc(Cc1ccc3cc1OCCCc1cc(C#N)ccc1COc1cccc-3n1)n2C[C@@H]1CCO1 [Example 12, (S)-1^4-((4-Methoxy-1-(oxetan-2-ylmethyl)-6-(1H-tetrazol-5-yl)-1H-benzo[d]imidazol-2-yl)methyl)-3,9-dioxa-2(2,6)-pyridina-1(1,3),5(1,2)-dibenzenacyclononaphane-5^4-carbonitrile]		

Continued, molecule first:

Structure (SMILES)	EC50 [2] [nM]	Emax [2] [%]	EC50 [3] [nM]	Emax [3] [%]	EC50 [4] [nM]	Emax [4] [%]	ring closure, yield after HPLC ([1]; from CCOC(=O)Cc1cc(F)c(Br)cc1COCCc1cc(C#N)ccc1COc1ccc(F)c(Br)n1, XPhos Pd G3/Me3SnSnMe3/CsF, 1,4-dioxane, 11.4 mM) [%]	ring closure, yield after HPLC ([1]; from FC(F)(F)c1cc(CCOCc2cc(Br)ccc2Cl)c(COc2cccc(Br)n2)cn1, XPhos Pd G3) [%]
CCOC(=O)Cc1cc(F)c2cc1COCCc1cc(C#N)ccc1COc1ccc(F)c-2n1							29	
FC(F)(F)c1cc2c(cn1)COc1cccc(n1)-c1ccc(Cl)c(c1)COCC2								14
N#Cc1ccc2c(c1)CCCOc1cc(c(F)cc1Cc1nc3ccc(C(=O)O)cc3n1C[C@@H]1CCO1)-c1cccc(n1)OC2 [Example 1, (S)-2-((5^4-Cyano-1^6-fluoro-3,9-dioxa-2(2,6)-pyridina-1(1,3),5(1,2)-dibenzenacyclononaphane-1^4-yl)methyl)-1-(oxetan-2-ylmethyl)-1H-benzo[d]imidazole-6-carboxylic acid]	213	42.9	19.8	95	59.7	71		
N#Cc1ccc2c(c1)CCCOc1cc(c(F)cc1Cc1nc3c(F)cc(C(=O)O)cc3n1C[C@@H]1CCO1)-c1cccc(n1)OC2 [Example 2, (S)-2-((5^4-Cyano-1^6-fluoro-3,9-dioxa-2(2,6)-pyridina-1(1,3),5(1,2)-dibenzenacyclononaphane-1^4-yl)methyl)-4-fluoro-1-(oxetan-2-ylmethyl)-1H-benzo[d]imidazole-6-carboxylic acid]	133	52.7	8.05	98	17.5	72		
